Target: T1, human TRPC6 (Homo sapiens, UniProt Q9Y210)
T1 construct: expressed in transfected cells
T1 sequence (Q9Y210 1-931): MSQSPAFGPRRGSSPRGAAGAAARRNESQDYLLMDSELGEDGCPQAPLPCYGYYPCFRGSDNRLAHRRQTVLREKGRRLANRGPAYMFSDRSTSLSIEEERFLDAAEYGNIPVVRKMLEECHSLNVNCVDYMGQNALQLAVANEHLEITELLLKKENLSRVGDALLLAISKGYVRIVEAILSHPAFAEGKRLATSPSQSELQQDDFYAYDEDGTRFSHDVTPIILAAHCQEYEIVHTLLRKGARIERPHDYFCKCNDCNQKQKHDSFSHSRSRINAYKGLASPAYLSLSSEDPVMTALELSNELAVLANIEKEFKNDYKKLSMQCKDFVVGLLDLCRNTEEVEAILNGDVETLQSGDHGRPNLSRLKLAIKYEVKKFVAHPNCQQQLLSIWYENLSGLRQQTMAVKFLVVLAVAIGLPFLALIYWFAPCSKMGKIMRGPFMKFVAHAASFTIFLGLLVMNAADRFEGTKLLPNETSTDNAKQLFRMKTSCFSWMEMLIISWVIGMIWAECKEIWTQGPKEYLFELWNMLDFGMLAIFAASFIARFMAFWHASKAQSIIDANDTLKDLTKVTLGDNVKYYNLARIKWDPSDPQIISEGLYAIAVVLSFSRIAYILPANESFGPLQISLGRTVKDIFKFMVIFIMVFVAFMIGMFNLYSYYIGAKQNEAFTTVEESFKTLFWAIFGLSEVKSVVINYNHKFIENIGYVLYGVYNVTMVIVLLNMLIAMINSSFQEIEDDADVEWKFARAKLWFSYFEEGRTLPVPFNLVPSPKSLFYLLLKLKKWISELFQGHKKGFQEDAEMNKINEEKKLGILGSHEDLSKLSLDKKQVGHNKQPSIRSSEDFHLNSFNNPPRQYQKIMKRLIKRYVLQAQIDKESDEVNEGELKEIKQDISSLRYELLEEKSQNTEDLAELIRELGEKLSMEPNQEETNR
Assay: TRPC6 calcium flux assay (FLIPR, OAG-stimulated calcium influx)
Assay type: cell-based
Details: HEK293 cells stably transfected with human TRPC6, read-out: hTRPC6 Potency
Outline: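 IC50 derived by plotting background-corrected peak fluorescence (180 s window, normalized to OAG-triggered signal vs buffer) against dose. Stable human TRPC6 HEK293 line was dye-loaded, exposed to compound 25 min, then challenged with 50 uM final OAG in 2 mM Ca2+ HEPES buffer pH 7.2, 0.5% DMSO.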

| IC50 [nM] | SMILES |
| --- | --- |
| 24.2 | CC(c1ccncc1)N(C)C(=O)Cn1c(N2CC[C@@H](F)[C@H](N)C2)nc2cc(F)c(F)cc21 (stereo partly drawn) [Example 613, 2-(2-((3R,4R)-3-amino-4-fluoropiperidin-1-yl)-5,6-difluoro-1H-benzo[d]imidazol-1-yl)-N-methyl-N-(1-(pyridin-4-yl)ethyl)acetamide] |
| 28.5 | CN(CC#N)C(=O)Cn1c(N2CC[C@@H](F)[C@H](N)C2)nc2cc(F)c(F)cc21 [Example 615, 2-(2-((3R,4R)-3-amino-4-fluoropiperidin-1-yl)-5,6-difluoro-1H-benzo[d]imidazol-1-yl)-N-(cyanomethyl)-N-methylacetamide] |
| 32.3 | CCCN(C)C(=O)Cn1c(N2CC[C@@H](F)[C@H](N)C2)nc2cc(F)c(F)cc21 [Example 616, 2-(2-((3R,4R)-3-amino-4-fluoropiperidin-1-yl)-5,6-difluoro-1H-benzo[d]imidazol-1-yl)-N-methyl-N-propylacetamide] |
| 33.2 | N[C@@H]1CN(c2nc3cc(F)c(F)cc3n2CC(=O)N(CCO)C2CC2)CC[C@H]1F [Example 617, 2-(2-((3R,4R)-3-amino-4-fluoropiperidin-1-yl)-5,6-difluoro-1H-benzo[d]imidazol-1-yl)-N-cyclopropyl-N-(2-hydroxyethyl)acetamide] |
| 48.3 | N#CC1(F)CCN(C(=O)Cn2c(N3CC[C@@H](F)[C@H](N)C3)nc3cc(F)c(F)cc32)C1 (stereo partly drawn) [Example 618, 1-(2-(2-((3R,4R)-3-amino-4-fluoropiperidin-1-yl)-5,6-difluoro-1H-benzo[d]imidazol-1-yl)acetyl)-3-fluoropyrrolidine-3-carbonitrile] |
| 57.4 | N[C@@H]1CN(c2nc3cc(F)c(F)cc3n2CC(=O)N2CC3CC2CO3)CC[C@H]1F (stereo partly drawn) [Example 619, 2-(2-((3R,4R)-3-amino-4-fluoropiperidin-1-yl)-5,6-difluoro-1H-benzo[d]imidazol-1-yl)-1-(2-oxa-5-azabicyclo[2.2.1]heptan-5-yl)ethanone] |
| 78.9 | CN(CCC(F)(F)F)C(=O)Cn1c(N2CC[C@@H](F)[C@H](N)C2)nc2cc(F)c(F)cc21 [Example 622, -(2-((3R,4R)-3-amino-4-fluoropiperidin-1-yl)-5,6-difluoro-1H-benzo[d]imidazol-1-yl)-N-methyl-N-(3,3,3-trifluoropropyl)acetamide] |
| 89 | N[C@@H]1CN(c2nc3cc(F)c(F)cc3n2CC(=O)N2C[C@@H]3[C@H](C2)C3(F)F)CC[C@H]1F [Example 623, 2-(2-((3R,4R)-3-amino-4-fluoropiperidin-1-yl)-5,6-difluoro-1H-benzo[d]imidazol-1-yl)-1-((1R,5S)-6,6-difluoro-3-azabicyclo[3.1.0]hexan-3-yl)ethanone] |
| 102 | N[C@@H]1CN(c2nc3cc(F)c(F)cc3n2CC(=O)N2CCN(c3ncccn3)CC2)CC[C@H]1F [Example 624, 2-(2-((3R,4R)-3-amino-4-fluoropiperidin-1-yl)-5,6-difluoro-1H-benzo[d]imidazol-1-yl)-1-(4-(pyrimidin-2-yl)piperazin-1-yl)ethanone] |
| 105 | CC(C)C1CCN1C(=O)Cn1c(N2CC[C@@H](F)[C@H](N)C2)nc2cc(F)c(F)cc21 (stereo partly drawn) [Example 625, 2-(2-((3R,4R)-3-amino-4-fluoropiperidin-1-yl)-5,6-difluoro-1H-benzo[d]imidazol-1-yl)-1-(2-isopropylazetidin-1-yl)ethanone] |
| 117 | N[C@@H]1CN(c2nc3cc(F)c(F)cc3n2CC(=O)N2CCC(OC(F)F)C2)CC[C@H]1F (stereo partly drawn) [Example 626, 2-(2-((3R,4R)-3-amino-4-fluoropiperidin-1-yl)-5,6-difluoro-1H-benzo[d]imidazol-1-yl)-1-(3-(difluoromethoxy)pyrrolidin-1-yl)ethanone] |
| 158 | CC1(C#N)CCN(C(=O)Cn2c(N3CC[C@@H](F)[C@H](N)C3)nc3cc(F)c(F)cc32)CC1 [Example 629, 1-(2-(2-((3R,4R)-3-amino-4-fluoropiperidin-1-yl)-5,6-difluoro-1H-benzo[d]imidazol-1-yl)acetyl)-4-methylpiperidine-4-carbonitrile] |
| 174 | N[C@@H]1CN(c2nc3cc(F)c(F)cc3n2CC(=O)N2CCCc3cccnc32)CC[C@H]1F [Example 630, 2-(2-((3R,4R)-3-amino-4-fluoropiperidin-1-yl)-5,6-difluoro-1H-benzo[d]imidazol-1-yl)-1-(3,4-dihydro-1,8-naphthyridin-1(2H)-yl)ethanone] |
| 225 | N[C@@H]1CN(c2nc3cc(F)c(F)cc3n2CC(=O)N(CC(F)F)C2CC2)CC[C@H]1F [Example 631, 2-(2-((3R,4R)-3-amino-4-fluoropiperidin-1-yl)-5,6-difluoro-1H-benzo[d]imidazol-1-yl)-N-cyclopropyl-N-(2,2-difluoroethyl)acetamide] |
| 230 | N[C@@H]1CN(c2nc3cc(F)c(F)cc3n2CC(=O)N2Cc3cccnc3C2)CC[C@H]1F [Example 632, 2-(2-((3R,4R)-3-amino-4-fluoropiperidin-1-yl)-5,6-difluoro-1H-benzo[d]imidazol-1-yl)-1-(5H-pyrrolo[3,4-b]pyridin-6(7H)-yl)ethanone] |
| 326 | N#C[C@H]1CCCN1C(=O)Cn1c(N2CC[C@@H](F)[C@H](N)C2)nc2cc(F)c(F)cc21 [Example 636, (R)-1-(2-(2-((3R,4R)-3-amino-4-fluoropiperidin-1-yl)-5,6-difluoro-1H-benzo[d]imidazol-1-yl)acetyl)pyrrolidine-2-carbonitrile] |
| 341 | CN(C(=O)Cn1c(N2CC[C@@H](F)[C@H](N)C2)nc2cc(F)c(F)cc21)[C@H]1CC[C@H](O)CC1 [Example 637, 2-(2-((3R,4R)-3-amino-4-fluoropiperidin-1-yl)-5,6-difluoro-1H-benzo[d]imidazol-1-yl)-N-((1r,4R)-4-hydroxycyclohexyl)-N-methylacetamide] |
| 425 | CC(c1ccccn1)N(C)C(=O)Cn1c(N2CC[C@@H](F)[C@H](N)C2)nc2cc(F)c(F)cc21 (stereo partly drawn) [Example 638, 2-(2-((3R,4R)-3-amino-4-fluoropiperidin-1-yl)-5,6-difluoro-1H-benzo[d]imidazol-1-yl)-N-methyi-N-((S)-1-(pyridin-2-yl)ethyl)acetamide] |
| 657 | N[C@@H]1CN(c2nc3cc(F)c(F)cc3n2CC(=O)N2CCCC3COCCC32)CC[C@H]1F (stereo partly drawn) [Example 639, 2-(2-((3R,4R)-3-amino-4-fluoropiperidin-1-yl)-5,6-difluoro-1H-benzo[d]imidazol-1-yl)-1-(octahydro-1H-pyrano[4,3-b]pyridin-1-yl)ethanone] |
| 809 | N[C@@H]1CN(c2nc3cc(F)c(F)cc3n2CC(=O)N2CCC(O)CC2)CC[C@H]1F [Example 640, 2-(2-((3R,4R)-3-amino-4-fluoropiperidin-1-yl)-5,6-difluoro-1H-benzo[d]imidazol-1-yl)-1-(4-hydroxypiperidin-1-yl)ethanone] |
| 1280 | N[C@@H]1CN(c2nc3cc(F)c(F)cc3n2CC(=O)N2CC(n3cncn3)C2)CC[C@H]1F [Example 641, 1-(3-(1H-1,2,4-triazol-1-yl)azetidin-1-yl)-2-(2-((3R,4R)-3-amino-4-fluoropiperidin-1-yl)-5,6-difluoro-1H-benzo[d]imidazol-1-yl)ethanone] |
| 1650 | N[C@@H]1CN(c2nc3cc(F)c(F)cc3n2CC(=O)N2CCN3C(=O)NCC3C2)CC[C@H]1F (stereo partly drawn) [Example 642, 7-(2-(2-((3R,4R)-3-amino-4-fluoropiperidin-1-yl)-5,6-difluoro-1H-benzo[d]imidazol-1-yl)acetyl)hexahydroimidazo [1,5-a]pyrazin-3(2H)-one] |
| 1820 | N#CCCN(CC1CCOC1)C(=O)Cn1c(N2CC[C@@H](F)[C@H](N)C2)nc2cc(F)c(F)cc21 (stereo partly drawn) [Example 643, 2-(2-((3R,4R)-3-amino-4-fluoropiperidin-1-yl)-5,6-difluoro-1H-benzo[d]imidazol-1-yl)-N-(2-cyanoethyl)-N-((tetrahydrofuran-3-yl)methyl)acetamide] |
| 1910 | CNC(=O)C1CN(C(=O)Cn2c(N3CC[C@@H](F)[C@H](N)C3)nc3cc(F)c(F)cc32)CCO1 (stereo partly drawn) [Example 644, 4-(2-(2-((3R,4R)-3-amino-4-fluoropiperidin-1-yl)-5,6-difluoro-1H-benzo[d]imidazol-1-yl)acetyl)-N-methylmorpholine-2-carboxamide] |
| 2300 | CS(=O)(=O)CC1CCN(C(=O)Cn2c(N3CC[C@@H](F)[C@H](N)C3)nc3cc(F)c(F)cc32)C1 (stereo partly drawn) [Example 645, 2-(2-((3R,4R)-3-amino-4-fluoropiperidin-1-yl)-5,6-difluoro-1H-benzo[d]imidazol-1-yl)-1-(3-((methylsulfonyl)methyl)pyrrolidin-1-yl)ethanone] |
